For one experiment, the system named is platelet factors. In words: time-dependent changes in real part of complex permittivity of blood samples having different CyD concentrations at 10 MHz. The format is cell-based. An excerpt:
The electrical characteristic measurement device 10 includes a measurement unit that applies a voltage between a pair of electrodes provided in a sample container filled with a blood sample to be evaluated, and measures the electrical characteristics of the blood sample over time at a specific frequency or frequency band. Examples of electrical characteristics measured by the electrical characteristic measurement device 10 include the impedance, conductance, admittance, capacitance, permittivity, conductivity, and phase angle, as well as amounts obtained by converting them into the amounts of electricity. Incidentally, the blood condition analysis system 1 of this embodiment can perform evaluation from at least one kind of these electrical characteristics, but may also utilize two or more kinds of electrical characteristics.
In the measurement step S1, the electrical characteristics of two or more blood samples adjusted from one blood specimen and having different drug types or concentrations are measured over time at a specific frequency or frequency band. At this time, the conditions for the electrical characteristic measurement are not particularly limited, and may be suitably set according to the kind of electrical characteristics and the like within a range where the blood to be evaluated is not deteriorated.
In the analysis step S2, utilizing data of time-dependent changes in the electrical characteristics measured by the electrical characteristic measurement device 10, the influence of the drug or a factor in the blood on the coagulation system or fibrinolysis system of the blood is evaluated by the blood condition analysis device 11. For example, from data of time-dependent changes in the electrical characteristic of each blood sample, parameters conventionally used for the evaluation of the coagulation system or fibrinolysis system of blood are calculated. […]
In addition, for example, in the case where the coagulation system is evaluated, examples of coagulation factors to be evaluated include platelet factors and fibrinogen. […]

The test system of another experiment is platelets. Kind of experiment: Example 1: complex permittivity in the process of coagulation of blood with CyD or Pefabloc at various concentrations. The note with it: sample with Pefabloc concentration 0%, FIG. 24; addition of 8 μl of CyD to 180 μl of blood; blood from a healthy individual. The format is cell-based. The procedure:
(§1) Hereinafter, the effects of the present disclosure will be described in detail. In this example, CyD or Pefabloc was added at various concentrations to a blood sample collected from a healthy individual, and changes in the complex permittivity in the process of coagulation were measured.
(§2) As shown in the following Mathematical Formula 1, the clot firmness CF depends on the effective concentration of platelets PLT and the effective concentration of fibrinogen FIB. Incidentally, a, b, and c in the following Mathematical Formula 1 are parameters determined by measurement.
(§3) Here, by applying the analysis method shown in FIG. 8 to the data of a sample having a Pefabloc concentration of 0% shown in FIG. 24, it can be estimated that the CyD concentration at which the contribution of platelets disappears is 3.4 μg/ml (the addition of 8 μl of CyD to 180 μl of blood). As a result, the effective concentration of platelets (142000/μl) can be determined. In a similar manner, the amount of fibrinogen can be determined using the data of a sample having a CyD concentration of 0% shown in FIG. 25.

Experiment [1] deals with T1, fibrinogen (Homo sapiens, UniProt P02675+P02679).
T1 construct: from tissue; host or cells: blood sample (donor not described)
Kind of experiment: coagulation amplitude and coagulation time of blood samples vs fibrinogen inhibitor (Pefabloc) concentration. The note with it: relation to Pefabloc concentration, FIG. 15A and 15B. An excerpt:
Further, by using a fibrinogen inhibitor, such as Pefabloc, as the drug, the influence of fibrinogen can also be evaluated. FIG. 15A is a diagram showing the relation between the fibrinogen inhibitor (Pefabloc) concentration and the coagulation amplitude, while FIG. 15B is a diagram showing the relation with the coagulation time. […] Thus, utilizing this characteristic, the influence of fibrinogen can be evaluated, or the amount of fibrinogen can be estimated.

Experiment [2] deals with T1, fibrinogen. Kind of experiment: Example 1: complex permittivity in the process of coagulation of blood with CyD or Pefabloc at various concentrations. The settings on record: from PFG concentration dependence at CyD concentration 0, FIG. 25; blood from a healthy individual. The procedure:
as §1, §2, §3
Then, the effective concentration of platelets PLT can be estimated from data of CyD concentration dependence. In addition, the effective concentration of fibrinogen FIB can be estimated from data of PFG concentration dependence. […]

The test system of experiment [3] is fibrinolysis system of the blood. Kind of experiment: complex permittivity at 10 MHz of blood samples with fibrinolysis system promotor (tPA) and inhibitor (aprotinin). The settings on record: aprotinin added to blood with tPA, 10 MHz, FIG. 10. Here is the method:
In addition, for example, in the case where the fibrinolysis system is evaluated, examples of coagulation factors to be evaluated include plasminogen and plasmin. In that case, as a drug to be added to the blood sample, an activator or inhibitor of plasminogen or plasmin is usable. FIG. 9 is a diagram showing time-dependent changes in the real part (∈′) of the complex permittivity at 10 MHz of blood samples having different fibrinolysis system promotor (tPA) and fibrinolysis system inhibitor (aprotinin) concentrations.
For the evaluation of the fibrinolysis-system blood, for example, a value obtained by dividing the amplitude after 30 minutes from the time B shown in FIGS. 2A-2B by the amplitude at the time B (LI30: the source of clot firmness after a predetermined period of time from the maximum firmness accompanying fibrinolysis) can be used as an evaluation parameter.

For the next experiment, the system named is blood coagulation. In words: complex permittivity at 10 MHz of blood samples having different heparin concentrations. The settings on record: relation to heparin concentration, FIG. 12. The procedure:
The blood condition analysis method of this embodiment is not limited to the evaluation criteria and evaluation methods described above. For example, it is also possible that heparin is used as the drug, and the suppressing effect of heparin on blood coagulation is evaluated. FIG. 11 is a diagram showing time-dependent changes in the real part (∈′) of the complex permittivity of blood samples having different heparin concentrations at 10 MHz, and FIG. 12 is a diagram showing the relation between the clotting time determined from the values of ∈′ at 10 MHz shown in FIG. 11 and the heparin concentration. In addition, FIG. 13 is a diagram showing the coagulation curves of blood samples having different heparin concentrations, and FIG. 14 is a diagram showing the relation between the heparin concentration and the difference in clotting time.

T1 sequence (P02671 20-629 partner limits assumed): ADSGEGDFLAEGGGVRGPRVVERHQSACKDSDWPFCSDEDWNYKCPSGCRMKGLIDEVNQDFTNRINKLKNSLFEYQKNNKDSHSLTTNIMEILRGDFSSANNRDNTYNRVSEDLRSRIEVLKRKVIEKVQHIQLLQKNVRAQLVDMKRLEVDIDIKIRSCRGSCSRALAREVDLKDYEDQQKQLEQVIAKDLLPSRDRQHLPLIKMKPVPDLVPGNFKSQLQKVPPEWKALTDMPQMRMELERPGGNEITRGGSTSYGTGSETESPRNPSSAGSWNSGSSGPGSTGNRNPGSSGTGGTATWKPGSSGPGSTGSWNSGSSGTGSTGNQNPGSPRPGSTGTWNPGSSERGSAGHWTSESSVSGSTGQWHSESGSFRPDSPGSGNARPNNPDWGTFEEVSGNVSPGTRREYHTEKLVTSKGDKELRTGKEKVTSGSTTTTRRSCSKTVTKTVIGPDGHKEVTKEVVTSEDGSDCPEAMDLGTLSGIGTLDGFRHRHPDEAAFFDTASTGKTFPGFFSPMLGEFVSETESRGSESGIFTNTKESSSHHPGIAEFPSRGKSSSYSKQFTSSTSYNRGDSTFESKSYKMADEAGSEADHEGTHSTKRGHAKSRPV
T1 sequence (P02675 31-491): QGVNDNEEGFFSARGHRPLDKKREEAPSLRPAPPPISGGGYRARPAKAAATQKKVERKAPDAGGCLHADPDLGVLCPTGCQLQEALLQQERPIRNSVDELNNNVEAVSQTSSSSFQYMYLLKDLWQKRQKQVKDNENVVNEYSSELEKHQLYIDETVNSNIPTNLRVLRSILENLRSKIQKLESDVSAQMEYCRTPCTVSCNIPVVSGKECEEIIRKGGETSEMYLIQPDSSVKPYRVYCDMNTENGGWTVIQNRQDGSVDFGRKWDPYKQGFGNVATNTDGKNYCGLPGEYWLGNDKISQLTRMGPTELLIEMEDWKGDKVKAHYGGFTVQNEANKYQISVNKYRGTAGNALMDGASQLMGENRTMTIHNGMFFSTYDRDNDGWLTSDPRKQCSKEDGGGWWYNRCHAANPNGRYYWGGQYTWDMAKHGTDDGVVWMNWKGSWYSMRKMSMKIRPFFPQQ
T1 sequence (P02679 27-433 limits assumed): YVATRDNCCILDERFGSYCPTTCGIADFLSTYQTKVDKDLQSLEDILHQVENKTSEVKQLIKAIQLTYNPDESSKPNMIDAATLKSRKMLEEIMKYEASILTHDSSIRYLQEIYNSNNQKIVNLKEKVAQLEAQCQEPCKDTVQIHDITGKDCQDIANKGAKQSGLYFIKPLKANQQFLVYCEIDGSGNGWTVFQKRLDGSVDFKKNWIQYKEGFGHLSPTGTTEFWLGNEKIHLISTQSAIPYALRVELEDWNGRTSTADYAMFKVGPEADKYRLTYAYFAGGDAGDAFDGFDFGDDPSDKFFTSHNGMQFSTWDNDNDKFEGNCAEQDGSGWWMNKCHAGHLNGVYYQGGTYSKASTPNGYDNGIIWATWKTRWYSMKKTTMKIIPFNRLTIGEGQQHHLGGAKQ

In the case of `C=C1[C@@H](C)[C@H]2[C@H](Cc3ccccc3)NC(=O)[C@]23[C@H](OC(C)=O)/C=C/[C@@](C)(O)C(=O)[C@@H](C)C/C=C/[C@H]3[C@@H]1O` [CyD, cytochalasin D], the “amount of CyD for inhibiting the platelet factors” value with platelet factors (blood sample of FIG. 8, number of platelets 136500 per 1 μl) is on record as 25 ng per platelet. The “minimum drug dose to completely suppress the action of platelet factors” value in the experiment with platelet factors (from coagulation rate vs CyD concentration (FIG. 8), agrees with coagulation rate of blood sample containing excess CyD) came to 3.3 µg/mL. Besides, the “coagulation amplitude and coagulation rate determined from the real part of the complex permittivity” value with platelet factors (relation to CyD concentration, FIG. 7 and FIG. 8) was “correlated with the CyD concentration”. In addition, in the experiment with platelets, the “CyD concentration at which the contribution of platelets disappears” value came out at 3.4 µg/mL.

In the case of “H-Gly-Pro-Arg-Pro-OH×AcOH (H-GPRP-OH; also: acetate salt) [Pefabloc, fibrinogen function suppressor]”, the “coagulation amplitude and clotting time” value with fibrinogen [1] was “the coagulation amplitude and the clotting time change with an increase in the fibrinogen inhibitor (Pefabloc) concentration”. In the experiment with fibrinogen [2], the “effective concentration of fibrinogen FIB (equivalent PFG)” value was 1000 µg/mL.

Take aprotinin: in experiment [3], the “LI30 (amplitude after 30 minutes from time B divided by amplitude at time B)” value is on record as “turns back to the value of the control blood sample”.

For the compound heparin, the “clotting time determined from ∈′ at 10 MHz” value in the experiment on blood coagulation is “the clotting time increases with an increase in the heparin concentration”.

The values above are taken from patent publication US20170030891A1, “BLOOD CONDITION ANALYSIS DEVICE, BLOOD CONDITION ANALYSIS SYSTEM, BLOOD CONDITION ANALYSIS METHOD, AND PROGRAM” (SONY CORPORATION, priority 2014, published 2017).
